Measured values taken from US9649295B2, “Chemical inhibitors of soluble adenylyl cyclase (sAC)” (Cornell Research Foundation, Inc., priority 2004, dated 2017).

Assays:
[1] = test system: CREB phosphorylation in isolated nuclei; test: CREB phosphorylation in isolated HeLa nuclei (P2), Western analysis; type: biochemical; settings: for relative intensity of phospho-CREB band normalized to basal: basal 1 U, 1 mM 8-Br cAMP, 40 mM bicarbonate alone or plus 10 μM H-89 or 1 mM 8-Br-RpcAMPs
Protocol: The resuspended pellet and 60% OptiPrep iodixanol were mixed (30% OptiPrep final) and centrifuged at 10,000 g for 20 min. The supernatant was removed and the nuclei-enriched pellet (P2) was resuspended in TM-2 buffer without detergent.
Reactions were stopped by the addition of 20 μl of SDS sample buffer (CREB phosphorylation) or by being placed into a 100° C. heat block for 3 min (adenylyl cyclase).
For whole cell and isolated nuclei CREB phosphorylation assays, equal cell or nuclear equivalents were separated under reducing conditions using a 10% SDS-PAGE, transferred to a PVDF membrane, and probed for CREB (rabbit polyclonal antiserum; Chemicon, Temecula, Calif.) and phosphorylated CREB (rabbit polyclonal antiserum; Upstate Biotechnology, Temecula, Calif.). HRP-conjugated secondary antibodies were used, and bands were visualized using ECL. Image analysis software (model Fluorchem 8800; Alpha Innotech, San Leandro, Calif.) was used to quantitate Western results. Intensities of phospho-CREB bands were normalized to total CREB.

[2] = target: catalytic portion of the sAC-like adenylyl cyclase from Candida albicans (fragment JR3) (Candida albicans, UniProt A0A1D8PR83); test: biochemical; settings: read-out: EC50 for stimulation of adenylyl cyclase activity of JR3
Chain of catalytic portion of the sAC-like adenylyl cyclase from Candida albicans (fragment JR3) (A0A1D8PR83 entry or part of it): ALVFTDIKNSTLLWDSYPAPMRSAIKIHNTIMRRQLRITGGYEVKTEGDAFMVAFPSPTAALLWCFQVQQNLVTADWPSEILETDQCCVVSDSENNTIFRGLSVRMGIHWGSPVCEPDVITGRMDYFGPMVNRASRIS
Description: . FIG. 17A illustrates the bicarbonate dependence of the JR3 fragment; […];

[3] = test system: CREB phosphorylation in isolated nuclei; test: phospho-CREB immunocytochemistry of isolated nuclei; type: biochemical; settings: 10 min; 40 mM sodium bicarbonate, 1 mM 8-Br cAMP, 10 μM forskolin
Protocol: Cell Signaling Technologies) overnight at 4° C. Staining was visualized by incubation with goat anti-rabbit Alexa Fluor 488 (Molecular Probes) for 1 h at room temperature, treated with DAPI for 5 min, and washed and mounted with gelvatol/DABCO (Sigma-Aldrich). Fluorescent images were recorded by a digital camera (Hamamatsu, Bridgewater, N.J.) connected to an inverted epifluorescent microscope (Nikon, Melville, N.Y.). Images were taken at the same exposure time and gain, and all photographic manipulations were performed equally. Phospho-CREB-positive nuclei were quantified in multiple fields from each stained slide by a blinded experimenter. […] Nuclei were also treated with DAPI to differentiate intact nuclei from membrane ghosts. DAPI-positive nuclei were scored for phosho-CREB immunofluorescence. Nuclei with detectable staining (FIG. 6A, NaHCO3) were considered positive for CREB phosphorylation, whereas nuclei with no detectable staining (FIG. 6A, Basal) were counted as negative. Multiple microscopic fields were photographed for each condition, and data was combined from three to five separate experiments.

CREB phosphorylation [4] = test: time course of CREB phosphorylation in Huh7 cells; type: cell-based, human; settings: 44 mM bicarbonate DME, 1 μM PGE2
Protocol: FIGS. 2A-B show the time course of CREB phosphorylation by sAC and tmAC. Huh7 cells were starved for 1 h for bicarbonate and CO2 and incubated in 44 mM of normal, bicarbonate-containing DME in 5% CO2 for the time indicated (FIG. 2A) or kept in normal media and treated with 1 μM PGE2 for the time indicated (FIG. 2B). Top panels in FIGS. 2A-B show Western blots using anti-phospho-CREB antisera with phosphorylated CREB (P-CREB) protein indicated; the bottom panels show Western blot using CREB-specific antisera with total CREB (CREB) protein indicated. Shown below the Western blots in FIGS. 2A-B are graphical representations of the intensities of phospho-CREB relative to CREB normalized to the 0 min time point (first lane).
All cell lines were grown in DME (44 mM sodium bicarbonate) supplemented with 10% FBS. […]
For whole cell and isolated nuclei CREB phosphorylation assays, equal cell or nuclear equivalents were separated under reducing conditions using a 10% SDS-PAGE, transferred to a PVDF membrane, and probed for CREB (rabbit polyclonal antiserum; Chemicon, Temecula, Calif.) and phosphorylated CREB (rabbit polyclonal antiserum; Upstate Biotechnology, Temecula, Calif.). […] Image analysis software (model Fluorchem 8800; Alpha Innotech, San Leandro, Calif.) was used to quantitate Western results. […]

CREB phosphorylation [5] = test: CREB phosphorylation in COS7 cells; type: cell-based; settings: 10 μM H89 pretreatment 10 min
Protocol: All cell lines were grown in DME (44 mM sodium bicarbonate) supplemented with 10% FBS. Where indicated, cells were transfected using Lipofectamine 2000 (Invitrogen, Carlsbad, Calif.) as per the manufacturer's instructions. Cells were incubated with DNA for 5 h in OPTI-MEM (Invitrogen), and then switched to normal media. Bicarbonate starvation was conducted by changing media to bicarbonate-free DME (44 mM Hepes) supplemented with 10% FBS for at least 1 h at 37° C. under ambient air conditions. Bicarbonate stimulation consisted of returning cells to normal bicarbonate-containing media and placing them in a 5% CO2 incubator. For PGE2 or forskolin stimulation, cells were grown in normal media under 5% CO2. Stimulation was accomplished by replacing media with normal media containing 1 μM PGE2 or 10 μM forskolin. […]
For phospho-CREB immunolocalization, cells or nuclei were fixed in 4% PFA for 30 min, permeabilized in 0.1% Triton X-100 for 15 min, blocked for at least 1 h in 3% BSA, and immunostained using phospho-CREB polyclonal antisera (1:500; Cell Signaling Technologies) overnight at 4° C. […] Fluorescent images were recorded by a digital camera (Hamamatsu, Bridgewater, N.J.) connected to an inverted epifluorescent microscope (Nikon, Melville, N.Y.). […] Phospho-CREB-positive nuclei were quantified in multiple fields from each stained slide by a blinded experimenter. […]

Compound | relative intensity of phospho-CREB band normalized to basal [1] | increase in CREB phosphorylation ([1]; isolated nuclei, Western) | EC50 [2] | percentage of phospho-CREB-positive nuclei relative to basal [3] | time to detectable increase in phospho-CREB (CREB phosphorylation [4]) | reduction of CREB phosphorylation induced by bicarbonate ([1]; isolated nuclei, 40 mM bicarbonate) | effect on forskolin- or bicarbonate-induced phospho-CREB immunostaining (CREB phosphorylation [5])
O=C([O-])O.[Na+] [bicarbonate, sodium bicarbonate] | 27 U | 27 fold | ~200 µM | at least a twofold rise | ≤ 2 min |  | 
O=S(=O)(NCCNC/C=C/c1ccc(Br)cc1)c1cccc2cnccc12 [H89] | 13 U |  |  |  |  | 50% | inhibited
